Target: T1, NK-3 receptor (Homo sapiens, UniProt P29371)
T1 construct: expressed in transfected cells
T1 sequence (P29371 1-465): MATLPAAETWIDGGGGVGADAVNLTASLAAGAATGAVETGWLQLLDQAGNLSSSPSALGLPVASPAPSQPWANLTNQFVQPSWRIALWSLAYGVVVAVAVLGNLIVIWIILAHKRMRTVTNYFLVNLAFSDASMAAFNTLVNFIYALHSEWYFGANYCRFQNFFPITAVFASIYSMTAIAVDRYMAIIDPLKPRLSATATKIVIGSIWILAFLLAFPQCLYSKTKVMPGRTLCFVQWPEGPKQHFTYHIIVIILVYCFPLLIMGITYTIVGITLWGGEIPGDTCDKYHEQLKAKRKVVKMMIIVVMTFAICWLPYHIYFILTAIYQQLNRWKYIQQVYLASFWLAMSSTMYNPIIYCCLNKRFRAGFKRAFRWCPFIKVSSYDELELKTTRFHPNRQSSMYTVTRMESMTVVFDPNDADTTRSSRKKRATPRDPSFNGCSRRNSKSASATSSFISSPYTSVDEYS
Experiment: Assay for NK-3 functional activity (senktide-induced calcium mobilization, FLIPR)
Assay type: cell-based
Conditions: compared with the other diastereomer (sulfur center) separated by chiral SFC
From the text: A human NK-3 receptor gene was cloned using methods similar to those described for other human NK receptors (Aharony et al., Mol. Pharmacol. 45:9-19, 1994; Caccese et al., Neuropeptides 33, 239-243, 1999). The DNA sequence of the cloned NK-3 receptor differed from the published sequence (Buell et al., FEBS Letts. 299, 90-95, 1992; Huang et al., Biochem. Biophys. Res. Commun 184,966-972, 1992) having a silent single T>C base change at nucleotide 1320 of the coding sequence. Since the change is silent, the cloned gene provides a primary amino acid sequence for the encoded NK-3 receptor protein identical to the published sequence. […]
Generally, NK-3 functional activity may be assessed by using calcium mobilization assays in stable NK-3r-expressing cell lines. […] Agonists may be added to the cells and fluorescence responses continuously recorded for up to 5 min. […] The action of agonists may be assessed by observing their intrinsic activity in such a system.
NK-3 receptor expressing CHO cells were maintained in growth media (Ham's F12 medium, 10% FBS, 2 mM L-glutamine, and […] Hygromycin B). […] To quantify NK-3 receptor-induced calcium mobilization, cells were first washed with assay buffer consisting of Hanks' Balanced Salt Solution, 15 mM HEPES, and 2.5 mM probenecid, pH 7.4. […] The resulting data was analyzed using XLfit software (IDBS manufacturer) to determine EC50 and IC50 values.

Compound | biological activity when tested in the assay for NK-3 functional activity
CC[C@H](NC(=O)c1c([S+](C)[O-])c(-c2ccccc2)nc2ccccc12)c1ccccc1 (single isomer, unassigned) [Example 2 first eluting compound] | substantially greater biological activity
C[S+]([O-])c1c(-c2ccccc2)nc2ccccc2c1C(=O)N[C@H](c1ccccc1)C1CC1 (single isomer, unassigned) [Example 8 second eluting compound] | substantially greater biological activity
